Source: patent US6153424A, “Protease-deficient strains of Pichia methanolica” (ZymoGenetics, Inc., priority 1999, dated 2000)

Tested on: P. methanolica cells (strain CBS6515), UV-mutagenized
Assay: Nystatin enrichment for auxotrophic mutants; titering of colony forming units of treated versus control cells
Assay type: cell-based, Pichia methanolica
Details: 1 mg nystatin added to remainder of 500 ml culture (50 ml set aside as control) in minimal broth with 5 g/L ammonium sulfate, 1 additional hour with shaking
Procedure: Large-scale mutagenesis was then carried out using a 2-second UV exposure to provide about 20% killing. Cells were plated at approximately 10^4 cells/plate onto eight YEPD plates that were supplemented with 100 mg/L each of uracil, adenine, and leucine, which were added to supplement the growth of potential auxotrophs having the cognate deficiencies. Following UV exposure the plates were wrapped in foil and incubated overnight at 30° C. The following day the colonies on the plates (~10^5 total) were resuspended in water and washed once with water. An amount of cell suspension sufficient to give an OD600 of 0.1-0.2 was used to inoculate 500 ml of minimal broth made with yeast nitrogen base without amino acids or ammonia, supplemented with 1% glucose and 400 μg/L biotin. The culture was placed in a 2.8 L baffled Bell flask and shaken vigorously overnight at 30° C. The following day the cells had reached an OD600 of ~1.0-2.0. The cells were pelleted and resuspended in 500 ml of minimal broth supplemented with 5 g/L ammonium sulfate. The cell suspension was placed in a 2.8 L baffled Bell flask and shaken vigorously at 30° C. for 6 hours. 50 ml of the culture was set aside in a 250-ml flask as a control, and to the remainder of the culture was added 1 mg nystatin (Sigma Chemical Co., St. Louis, Mo.) to select for auxotrophic mutants (Snow, Nature 211:206-207, 1966). […]

Question: For `C[C@@H]1[C@H](O)[C@@H](C)/C=C/C=C/CC/C=C/C=C/C=C/C=C/C(O[C@H]2O[C@H](C)[C@@H](O)[C@H](N)[C@@H]2O)CC2O[C@](O)(CC(O)C(O)CCC(O)CC(O)CC(O)CC(=O)O[C@H]1C)CC(O)C2C(=O)O` (stereo partly shown) [nystatin], which “decrease in the number of viable cells (colony forming units) by a factor” value is on record?
Answer: 10^4
